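Results reflect a 48-hour exposure of cells in 96-well plates to compound at five concentrations. At the TGI there is no net growth.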
Assays:
Assay in all cases: NCI anticancer screen, dose series, 48 h
SK-OV-3 ovarian = system: SK-OV-3 ovarian
A549 NSCLC = system: A549 NSCLC
OVCAR-8 ovarian = system: OVCAR-8 ovarian
SK-MEL-2 melanoma = system: SK-MEL-2 melanoma
HCT-15 colon = system: HCT-15 colon
MDA-MB-435 = system: MDA-MB-435
MALME-3M melanoma = system: MALME-3M melanoma
SK-MEL-5 melanoma = system: SK-MEL-5 melanoma
DU-145 prostate = system: DU-145 prostate
KM12 colon = system: KM12 colon
MOLT-4 leukemia = system: MOLT-4 leukemia
UACC-257 melanoma = system: UACC-257 melanoma
CCRF-CEM leukemia = system: CCRF-CEM leukemia
NCI/ADR-RES ovarian = system: NCI/ADR-RES ovarian
SN12C renal = system: SN12C renal
NCI-H460 lung = system: NCI-H460 lung
SNB-19 CNS = system: SNB-19 CNS
SF-268 CNS = system: SF-268 CNS
HS 578T breast = system: HS 578T breast
SW-620 colon = system: SW-620 colon
HCT-116 colon = system: HCT-116 colon
A498 renal = system: A498 renal
HT29 colon = system: HT29 colon
PC-3 prostate = system: PC-3 prostate
RPMI-8226 leukemia = system: RPMI-8226 leukemia
OVCAR-5 ovarian = system: OVCAR-5 ovarian
HL-60(TB) leukemia = system: HL-60(TB) leukemia
IGROV1 ovarian = system: IGROV1 ovarian
MDA-MB-231 breast = system: MDA-MB-231 breast
NCI-H522 lung = system: NCI-H522 lung
COLO 205 colon = system: COLO 205 colon
U251 CNS = system: U251 CNS
HOP-62 NSCLC = system: HOP-62 NSCLC
SF-295 CNS = system: SF-295 CNS
TK-10 renal = system: TK-10 renal
SK-MEL-28 melanoma = system: SK-MEL-28 melanoma
MCF7 breast = system: MCF7 breast
NCI-H226 lung = system: NCI-H226 lung
BT-549 breast = system: BT-549 breast
ACHN renal = system: ACHN renal
M14 melanoma = system: M14 melanoma
HCC-2998 colon = system: HCC-2998 colon
NCI-H23 lung = system: NCI-H23 lung
OVCAR-3 ovarian = system: OVCAR-3 ovarian
MDA-N = system: MDA-N
SNB-75 CNS = system: SNB-75 CNS
T-47D breast = system: T-47D breast
OVCAR-4 ovarian = system: OVCAR-4 ovarian
EKVX NSCLC = system: EKVX NSCLC
RXF 393 renal = system: RXF 393 renal
UO-31 renal = system: UO-31 renal
UACC-62 melanoma = system: UACC-62 melanoma
HOP-92 NSCLC = system: HOP-92 NSCLC
786-0 renal = system: 786-0 renal
CAKI-1 renal = system: CAKI-1 renal
K-562 leukemia = system: K-562 leukemia
SF-539 CNS = system: SF-539 CNS
LOX IMVI melanoma = system: LOX IMVI melanoma
SR leukemia = system: SR leukemia

## CCSC1=N/C(=C\c2ccc(N(C)C)cc2)C(Cl)=N1
SK-OV-3 ovarian
  TGI: > 100 µM
A549 NSCLC
  TGI: > 100 µM
OVCAR-8 ovarian
  TGI: > 100 µM
SK-MEL-2 melanoma
  TGI: > 100 µM
HCT-15 colon
  TGI: > 100 µM
MDA-MB-435
  TGI: > 100 µM
MALME-3M melanoma
  TGI: > 100 µM
SK-MEL-5 melanoma
  TGI: > 100 µM
DU-145 prostate
  TGI: > 100 µM
KM12 colon
  TGI: > 100 µM
MOLT-4 leukemia
  TGI: > 100 µM
UACC-257 melanoma
  TGI: > 100 µM
CCRF-CEM leukemia
  TGI: > 100 µM
NCI/ADR-RES ovarian
  TGI: > 100 µM
SN12C renal
  TGI: > 100 µM
NCI-H460 lung
  TGI: > 100 µM
SNB-19 CNS
  TGI: > 100 µM
SF-268 CNS
  TGI: > 100 µM
HS 578T breast
  TGI: > 100 µM
SW-620 colon
  TGI: > 100 µM
HCT-116 colon
  TGI: > 100 µM
A498 renal
  TGI: > 100 µM
HT29 colon
  TGI: > 100 µM
PC-3 prostate
  TGI: > 100 µM
RPMI-8226 leukemia
  TGI: > 100 µM
OVCAR-5 ovarian
  TGI: > 100 µM
HL-60(TB) leukemia
  TGI: > 100 µM
IGROV1 ovarian
  TGI: > 100 µM
MDA-MB-231 breast
  TGI: > 100 µM
NCI-H522 lung
  TGI: > 100 µM
COLO 205 colon
  TGI: > 100 µM
U251 CNS
  TGI: > 100 µM
HOP-62 NSCLC
  TGI: > 100 µM
SF-295 CNS
  TGI: > 100 µM
TK-10 renal
  TGI: > 100 µM
SK-MEL-28 melanoma
  TGI: > 100 µM
MCF7 breast
  TGI: > 100 µM
NCI-H226 lung
  TGI: > 100 µM
BT-549 breast
  TGI: > 100 µM
ACHN renal
  TGI: > 100 µM
M14 melanoma
  TGI: > 100 µM
HCC-2998 colon
  TGI: > 100 µM
NCI-H23 lung
  TGI: > 100 µM
OVCAR-3 ovarian
  TGI: > 100 µM
MDA-N
  TGI: > 100 µM
SNB-75 CNS
  TGI: > 100 µM
T-47D breast
  TGI: > 100 µM
OVCAR-4 ovarian
  TGI: > 100 µM
EKVX NSCLC
  TGI: > 100 µM
RXF 393 renal
  TGI: > 100 µM
UO-31 renal
  TGI: > 100 µM
UACC-62 melanoma
  TGI: > 100 µM
HOP-92 NSCLC
  TGI: > 100 µM
786-0 renal
  TGI: > 100 µM
CAKI-1 renal
  TGI: > 100 µM

## CC(C)(C)[Si](C)(C)Oc1ccc(C2CNC(=O)C23CCC(=O)N3Cc2ccccc2)cc1 (stereo unspecified)
SK-OV-3 ovarian
  TGI: 29 µM
A549 NSCLC
  TGI: 33.2 µM
OVCAR-8 ovarian
  TGI: 28.8 µM
K-562 leukemia
  TGI: > 100 µM
SK-MEL-2 melanoma
  TGI: 35.5 µM
HCT-15 colon
  TGI: 30 µM
MDA-MB-435
  TGI: 29.9 µM
SF-539 CNS
  TGI: 30.7 µM
MALME-3M melanoma
  TGI: 48.4 µM
SK-MEL-5 melanoma
  TGI: 19.6 µM
DU-145 prostate
  TGI: 38.7 µM
KM12 colon
  TGI: > 100 µM
MOLT-4 leukemia
  TGI: > 100 µM
UACC-257 melanoma
  TGI: 25.7 µM
CCRF-CEM leukemia
  TGI: > 100 µM
NCI/ADR-RES ovarian
  TGI: 26.7 µM
SN12C renal
  TGI: 35.9 µM
NCI-H460 lung
  TGI: 20.8 µM
SNB-19 CNS
  TGI: 29.5 µM
SF-268 CNS
  TGI: 26 µM
HS 578T breast
  TGI: 21.5 µM
SW-620 colon
  TGI: 31.1 µM
HCT-116 colon
  TGI: > 100 µM
A498 renal
  TGI: 25.1 µM
HT29 colon
  TGI: 24.8 µM
PC-3 prostate
  TGI: 35.7 µM
RPMI-8226 leukemia
  TGI: 18.8 µM
OVCAR-5 ovarian
  TGI: 36.9 µM
HL-60(TB) leukemia
  TGI: 49.2 µM
IGROV1 ovarian
  TGI: 31.6 µM
NCI-H522 lung
  TGI: 29.2 µM
COLO 205 colon
  TGI: 25.3 µM
U251 CNS
  TGI: 36.2 µM
HOP-62 NSCLC
  TGI: 53.3 µM
SF-295 CNS
  TGI: 30.6 µM
TK-10 renal
  TGI: 51.8 µM
MCF7 breast
  TGI: 17.6 µM
NCI-H226 lung
  TGI: 44.8 µM
BT-549 breast
  TGI: 33.1 µM
LOX IMVI melanoma
  TGI: 41.2 µM
ACHN renal
  TGI: 30.9 µM
M14 melanoma
  TGI: 35 µM
NCI-H23 lung
  TGI: 25.5 µM
OVCAR-3 ovarian
  TGI: 33 µM
MDA-N
  TGI: 27.3 µM
SNB-75 CNS
  TGI: 32.1 µM
T-47D breast
  TGI: 63 µM
OVCAR-4 ovarian
  TGI: 29.1 µM
SR leukemia
  TGI: > 100 µM
EKVX NSCLC
  TGI: 22.4 µM
RXF 393 renal
  TGI: 23.2 µM
UO-31 renal
  TGI: 32.9 µM
UACC-62 melanoma
  TGI: 32 µM
HOP-92 NSCLC
  TGI: 34.6 µM
786-0 renal
  TGI: 45.3 µM
CAKI-1 renal
  TGI: 45 µM

From PubChem BioAssay (NCI)
